Test results reported in US5986074A, “Metal chelates as pharmaceutical imaging agents, processes of making such and uses thereof” (Emory University, priority 1997, dated 1999).
Where two headings read alike, the source gives them in different places. Values belong to the compound of their own block, whether it stands above or below them.

Columns and labels:
[1] = Stability of thiourea chelates; format: physicochemical
[2] = Biodistribution in normal rats (Table 1); format: in vivo, rat; details: for Bladder, percent of total activity / Carcass, percent of total activity / Intestines, percent of total activity / Kidneys, percent of total activity / Liver, percent of total activity / Stomach, percent of total activity: normal rats
Procedure: Tracheostomy was performed in an anesthetized rat and the left jugular vein was cannulated with one piece of PE-50 tubing for injection of the ^99m Tc radiopharmaceutical. The bladder was catheterized utilizing heat flared PE-50 tubing for urine collection. […] Each animal was sacrificed at the conclusion of the dynamic study and simultaneous static images of the isolated lungs, heart, liver, spleen, stomach, kidneys, bowel and bladder with urine were acquired as well as a static image of the rat carcass without the organs. Total counts for the injected dose were determined from the sum of the isolated organ counts and the carcass counts decay corrected to the time of organ imaging. Regions of interest were drawn around each organ to determine the percent injected dose in each organ.

kidney = assay: Renal clearance and extraction efficiency in rats; format: in vivo, rat; details: technetium or rhenium chelate
Procedure: Clearance was determined by averaging three clearances based on three successive 10 minute urine collections. Clearance=UV/P where U is the urine concentration, V is the urine volume, and P is the plasma concentration. To measure extraction efficiency (EE), a left renal venous blood (0.5 ml) sample was obtained followed by a 3-ml carotid arterial sample. Both blood samples were centrifuged within 5 minutes to obtain a plasma sample. The extraction efficiency was calculated by measuring the difference between the arterial and venous blood sample: EE=(arterial concentration--venous concentrationlarterial concentration). Plasma protein binding (PPB) was determined by ultracentrifugation (Centrifree, Amicon, Inc., Beverly, Mass., micropartition system) of 1 ml arterial plasma. PPB=[1.0-(ultrafiltrate concentration/plasma concentration)]×100.

[3] = Ionic forms at physiological pH; format: physicochemical
[4] = Normal volunteer studies: plasma clearance, urinary excretion, imaging; format: in vivo, human; details: humans; for Clearance rate (EC/OIH): relative to coinjected OIH
Procedure: ^99m Tc LL-EC, DD-EC and DL-EC were each evaluated in three normal male volunteers. The HPLC purified complexes and phosphate-buffered saline (pH 7.0) were passed through a SEP-PAK Plus C18 cartridge (primed with 1 ml ethanol) and a sterile Millex-GS 0.22 μm filter unit into a sterile, pyrogen-free empty vial. The final concentration was ~2.0 mCi/2.5 ml and the final pH ranged from 5.7 to 7.4. Test samples of each complex were sterile and pyrogen free. Approximately 2 mCi of each ^99m Tc complex were coinjected with 200 μCi of I-131 OIH and plasma samples were obtained at 5, 10, 15, 20, 30 45, 60 and 90 minutes post injection. The plasma clearances of 1-131 OIH and each EC complex were determined using the single injection, two-compartment model of Sapirstein et al., (1955) Am. J. Physiol. 181: 330-336. The volunteers voided at 30, 90 and 180 minutes post injection to determine the percent dose in the urine at each time period. A urine sample from the 30 minute urine collection was obtained for HPLC analysis from one of the normal volunteers and analyzed for each complex. One volunteer was imaged with each complex using a simultaneous acquisition with a 20% window centered over the 363 KeV photopeak of I-131 and a second 20% window over the 140 KeV photopeak of ^99m Tc. Data were acquired in a 128×128 matrix using a three phase dynamic acquisition: phase 1 consisted of 24 two second frames, phase 2 consisted of 16 fifteen second frames and phase 3 consisted of 40 thirty second frames. Data were acquired using a general Electric (Milwaukee, Wis.) Star-Cam computer fitted with a high energy collimator. All studies were performed with the approval of the Human Investigations Committee and a signed consent form was obtained.

plasma protein = details: cited from earlier work
[5] = mice and baboons; cited from earlier work
kidneys = details: in vivo; cited from earlier work
[6] = cited from earlier work
[7] = cited from earlier work; remark: listed apart in the source
[8] = mice, baboons, volunteers; cited from earlier work
brain = details: in vivo; cited from earlier work
[9] = cited from earlier work; remark: listed apart in the source

Compound: CC(C)(S)C(=O)NCCCNC(=S)NCCC(=O)O [(Me)2 -TAPTU-EtCOOH, dimethylthioacetamidepropylthiourea-ethylCOOH]
Stability compared with the corresponding thioacetamidethiourea derivative [1]: greater stability than the corresponding thioacetamide-thiourea derivative
Stability compared with the corresponding thioacetamidethiourea derivative ([1]; listed as dimethyl-TAPTU-EtCOOH): appeared to be more stable than the corresponding thioacetamidethiourea derivative

Bladder, percent of total activity ([2]; 22 minutes post injection): 63.2% of total activity
Carcass, percent of total activity ([2]; 22 minutes post injection): 25.4% of total activity
Intestines, percent of total activity ([2]; 22 minutes post injection): 2.6% of total activity
Kidneys, percent of total activity ([2]; 22 minutes post injection): 5.4% of total activity
Liver, percent of total activity ([2]; 22 minutes post injection): 2.9% of total activity
Stomach, percent of total activity ([2]; 22 minutes post injection): < 1% of total activity
Removal/excretion by the kidneys, in words ([2]; rats, listed as 99m Tc-D,D-EC): superior to L,L-EC in rats
Dianionic form at physiological pH [3]: 80%
Monoanionic form at physiological pH [3]: 20%
Clearance rate (EC/OIH) [4]: 82±8%
Compound: O=C(O)[C@@H](CS)NCCN[C@H](CS)C(=O)O [D,D-EC, D,D-ethylenedicysteine]
Removal/excretion by the kidneys, in words ([2]; rats): more rapid renal clearance than ^99m Tc MAG3
Renal clearance, in words (kidney): significantly higher than that of its LL-isomer and than that of ^99m Tc MAG3

Compound: O=C(O)C(CS)NCCNC(CS)C(=O)O (stereo not drawn) [EC, ethylene dicysteine]
Protein binding characteristics (plasma protein): favorable protein binding characteristics

Bladder, percent of total activity ([2]; 22 minutes post injection): 45.6% of total activity
Carcass, percent of total activity ([2]; 22 minutes post injection): 22.6% of total activity
Intestines, percent of total activity ([2]; 22 minutes post injection): 1.8% of total activity
Kidneys, percent of total activity ([2]; 22 minutes post injection): 24.4% of total activity
Liver, percent of total activity ([2]; 22 minutes post injection): 4.5% of total activity
Stomach, percent of total activity ([2]; 22 minutes post injection): < 1% of total activity
Dianionic form at physiological pH [3]: 80%
Monoanionic form at physiological pH [3]: 20%
Clearance rate (EC/OIH) [4]: 70±3%
Compound: O=C([O-])[C@H](C[S-])NCCN[C@@H](CS)C(=O)[O-].[O]=[Tc+3] [L,L-EC, L,L-ethylenedicysteine]
Comparison with ^99m Tc DD-EC [5]: superior to the enantiomer ^99m Tc DD-EC
Pharmacokinetic properties compared with OIH and MAG3 [5]: more closely approached those of OIH than the properties of MAG3

Bladder, percent of total activity ([2]; 22 minutes post injection): 57% of total activity
Carcass, percent of total activity ([2]; 22 minutes post injection): 14% of total activity
Intestines, percent of total activity ([2]; 22 minutes post injection): 5% of total activity
Kidneys, percent of total activity ([2]; 22 minutes post injection): 23% of total activity
Liver, percent of total activity ([2]; 22 minutes post injection): 1% of total activity
Stomach, percent of total activity ([2]; 22 minutes post injection): < 1% of total activity
Compound: O=C(O)CNC(=O)CNC(=O)CNC(=O)CS [MAG3, mercaptoacetyltriglycine]
Extraction rate (kidneys): favorably high extraction rate
Transport into the small intestine via the hepatobiliary system ([6]; normal volunteers): a small percentage
Transport into the small intestine via the hepatobiliary system ([6]; patients with renal failure): this percentage increases in patients with renal failure
Plasma-protein binding, in words (plasma protein): very high
Clearance compared to DTPA ([7]; in vivo): higher clearance of MAG3 compared to DTPA
Clearance relative to OIH ([7]; percent of OIH clearance): 50-60%

Compound: C[C@H](NC(=O)CNC(=O)CS)C(=O)NCC(=O)O [MAGAG, mercaptoacetylglycylalanylglycine]
Comparison with ^99m Tc MAG3 [8]: one diastereomer comparable and the other considerably inferior

Compound: O=C(O)CNC(=O)c1ccccc1[131I] [OIH, ^131 I-orthohippurate]
Clearance relative to p-aminohippuric acid (PAH) ([7]; percent of PAH clearance): 83%

Rate of excretion in the urine [4]: had a slower rate of excretion
Clearance rate (EC/OIH) [4]: 40±5%
Compound: D,L-ethylenedicysteine [DL-EC]

Bladder, percent of total activity ([2]; 30 minutes post injection): 58.2% of total activity
Carcass, percent of total activity ([2]; 30 minutes post injection): 19.8% of total activity
Intestines, percent of total activity ([2]; 30 minutes post injection): 6.4% of total activity
Kidneys, percent of total activity ([2]; 30 minutes post injection): 7.2% of total activity
Liver, percent of total activity ([2]; 30 minutes post injection): 4.8% of total activity
Stomach, percent of total activity ([2]; 30 minutes post injection): 1.9% of total activity
Compound: L-cysteinylethylenepyridine carboxamide [L-CEPIC]
Removal/excretion by the kidneys, in words ([2]; rats): rapid and selective removal of the test compounds by the kidneys
Uptake in other major organs ([2]; rats): only trace amounts being taken up in other major organs
Removal/excretion by the kidneys, in words ([2]; rats, listed as 99m Tc-CEPIC): even more rapidly excreted by the kidneys than ^99m Tc MAG3
Renal clearance, in words (kidney): renal clearance efficiency similar to that of ^99m Tc MAG3

Compound: ^99m Tc L,L-ethylenedicysteine diethyl ester [^99m Tc LL-ECD]
Brain perfusion (brain): good brain perfusion agent

Compound: ^99m Tc mercaptoacetyl-glycylglycyl-taurine
Comparison with ^99m Tc MAG3 in dogs [9]: inferior to ^99m Tc MAG3 in dogs

Compound: thioacetamidethiourea-ethylCOOH [TATU-EtCOOH]
Renal clearance, in words (kidney): superior renal clearance in rats when compared to a corresponding metal chelate with MAG3

Renal clearance, in words (kidney; listed as TATU-pPh): cleared at a moderate rate
Compound: thioacetamidethiourea-para-phenylCOOH [TATU-pPhCOOH]
Renal clearance, in words (kidney): cleared at a moderate rate by the kidneys in rat
